Measurements taken from US12239643B2, “Therapeutic agent for inflammatory diseases, autoimmune diseases, fibrotic diseases, and cancer diseases” (MEIJI SEIKA PHARMA CO., LTD., priority 2018, dated 2025).
pIC50: −log10 of the molar value.

How the values were obtained:
Daoy (brain tumor) = test: Antitumor activity: growth inhibition of Daoy; type: cell-based; settings: Homo sapiens, 120 h, culturing for 5 days, read-out: 50% growth inhibitory concentration
Method: (§1) As antitumor activity, 50% growth inhibitory concentration of various cancer cells (CEM-C1 (blood cancer (leukemia)), SU-DHL-4 (blood cancer (lymphoma)), A549 (lung cancer), HCT-116 (colorectal cancer), and Daoy (brain tumor)) was calculated as follows. First, each of the above cancer cells was seeded on a 384-well plate and cultured overnight at 37° C. under 5% CO2. After that, the test compound was added at various concentrations on the next day, and each number of cells was measured after culturing for 5 days. The 50% growth inhibitory concentration was defined as the test compound concentration at which the number of cells measured is an intermediate value between the number of cells after culture for 5 days under the same conditions without the addition of the test compound and the number of cells at the time of seeding (before the start of culture). The measurement results obtained by measuring the 50% growth inhibitory concentration of the test compound by the above method were evaluated in accordance with the following evaluated basis; A: less than 10 μM, B: 10 μM or more and less than 50 μM, and C: 50 μM or more. As a result of using apremilast as the test compound, the evaluation was C in all cancer cells. On the other hand, as a result of using the compound obtained in Example 248 as the test compound, the evaluation was A in all cancer cells.

A549 (lung cancer) = test: Antitumor activity: growth inhibition of A549; type: cell-based; settings: Homo sapiens, 120 h; A549, culturing for 5 days; read-out: 50% growth inhibitory concentration
Method: as §1

[1] = tested on: type II collagen-induced arthritis, DBA-1 JNCrlj mice; test: Mouse CIA (arthritis) model; type: in vivo; settings: oral, day 31 after the initial sensitization of type II collagen
Method: Evaluation was carried out using male DBA-1 JNCrlj mice (6 to 8 weeks of age). First, 150 μg/0.1 mL of type II collagen (bovine)/ACF emulsion was intradermally administered to the mouse ridge to cause primary sensitization. Twenty-one days later, 100 μg/0.1 mL of type II collagen (bovine)/AIF emulsion was similarly intradermally administered to the ridge to cause secondary sensitization. Note that, in the blank group, saline was intradermally administered to the ridge at the first sensitization and second sensitization. Next, for 10 days from the day of secondary sensitization, 0.1 to 20 mg/kg of the test compound dissolved or suspended in 0.5% w/v methylcellulose (0.5% MC) was orally administered once or twice a day.
The arthritis score of each limb was judged to be 0 to 4 by visual inspection and palpation (0: no symptoms, 1: one finger is red and swollen, 2: two or more fingers or in step is red and swollen, 3: fingers, in step, and heel are red and swollen, 4: movement of joints throughout the limb is poor), and the total of the limbs was used as the individual score, and the average score of the individual group administered with each test compound was calculated and used as the arthritis score. In addition, the foot volume (mL) of the left and right hind limbs was measured using a foot volume measuring device, and the edema rate was calculated by the following formula. Edema Rate (%)={(Left and Right Added Footpad Volume After Sensitization−Left and Right Added Footpad Volume Before Sensitization)/Left and Right Added Footpad Volume Before Sensitization}×100
The arthritis score of each test compound on day 31 after the initial sensitization of type II collagen was evaluated by the above method in accordance with the following evaluated basis; A: less than 2, B: 2 or more and less than 3, and C: 3 or more. In addition, the edema rate of each test compound on day 31 after the initial sensitization of type II collagen was evaluated in accordance with the following evaluated basis; A: less than 10%, B: 10% or more and less than 20%, and C: 20% or more. As a result of using apremilast as the test compound, the arthritis score and the edema rate were both evaluated as B. On the other hand, as a result of using the compound obtained in Example 248 as the test compound, the arthritis score and the edema rate were both evaluated as A.

IL-4 = test: Cytokine suppression using whole human blood: IL-4 (CytoStim and CD28 antibody stimulus); type: cell-based; settings: read-out: IL-4 Inhibitory Activity, Human Whole Blood (Test Example 3)
Method: The test compound dissolved in dimethyl sulfoxide was added to a 96-well plate, and RPMI-1640 medium and human peripheral blood containing sodium heparin were added, followed by culture at 37° C. under 5% CO2 for 1 hour. A medium containing only dimethyl sulfoxide instead of the test compound was added to the control well. […]
After collecting the culture supernatant after culturing, the amount of each cytokine was measured by the sandwich ELISA method. […]
The measurement results obtained by measuring the TNFα inhibitory activity and IL-5 inhibitory activity (50% inhibitory concentration) of the test compounds by the above method were evaluated in accordance with the following evaluated basis; A: less than 100 nM, B: 100 nM or more and less than 500 nM, and C: 500 nM or more. In addition, the measurement results obtained by measuring the IL-17A inhibitory activity and IL-4 inhibitory activity (50% inhibitory concentration) of the test compounds were evaluated in accordance with the following evaluated basis; A: less than 500 nM, B: 500 nM or more and less than 5000 nM, and C: 5000 nM or more.

[2] = tested on: HCT-116 (colorectal cancer); test: Antitumor activity: growth inhibition of HCT-116; type: cell-based; settings: Homo sapiens, 120 h; HCT-116, culturing for 5 days; read-out: 50% growth inhibitory concentration
Method: as §1

Row | Compound | pIC50 (Daoy (brain tumor)) | pIC50 (A549 (lung cancer)) | arthritis score [1] | edema rate [1] | pIC50 (IL-4) | pIC50 [2]
1 | CCOc1cc([C@@H](CS(C)(=O)=O)N2C(=O)c3cccc(NC(C)=O)c3C2=O)ccc1OC [apremilast, reference compound] | ≤ 4.30 | ≤ 4.30 | B (B: 2 or more and less than 3) | B (B: 10% or more and less than 20%) | ≤ 5.30 | ≤ 4.30
2 | CC(C)(O)C(F)(F)Oc1ccc(-c2nccs2)c2oc(N3CC4CC(C3)N4)nc12 [Example 248, 1-((2-(3,6-Diazabicyclo[3.1.1]heptan-3-yl)-7-(thiazol-2-yl)benzo[d]oxazol-4-yl)oxy)-1,1-difluoro-2-methylpropan-2-ol] | > 5.00 | > 5.00 | A (A: less than 2) | A (A: less than 10%) | > 6.30 | > 5.00
